Source: US20260008793A1, “IONIZABLE CATIONIC LIPIDS INCORPORATING SILICON” (ALDEXCHEM KFT., priority 2022, published 2026)

Assays:
Assay type in all cases: physicochemical
[1] = LNP size, PDI and zeta potential by Dynamic Light Scattering (Method A); conditions: LNP formulated by Method A; for Zeta potential (mV): 1xPBS pH 7.4; for PDI / Size (nm): DLS; for Size (nm): Luciferase-mRNA loaded
Summary of the method: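 Dynamic light scattering gave particle size, PDI and zeta potential of the LNPs. These were made by microfluidic mixing, 3:1 aqueous to ethanol, of mRNA in 10 mM citrate pH 4.0 with a lipid master mix carrying the ionizable lipid, then dialysed through 100 kDa MWCO tubing.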

[2] = Encapsulation efficiency, RiboGreen RNA assay (Method A); conditions: LNP formulated by Method A
Summary of the method: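 mRNA-LNPs (Method A formulation) diluted in TE buffer pH 7.4/7.5 and measured in duplicate with and without Triton lysis (37° C., 10 min). RiboGreen fluorescence read at ex 480/em 525. mRNA quantified against a standard curve.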

[3] = physchem
Procedure: The synthesized lipids were tested in term of in vitro transfection efficacy and toxicity on HeLa cells. In order to perform the mentioned biological tests, appropriate LNPs had to be formulated from the synthesized lipids. The formulation technique was different in Method A and B. The particle size, PDI and zeta potential of resulting LNPs were determined by means of Dynamic Light Scattering technique (DLS). Prior to biological testing the encapsulation efficiency (EE) of the loaded LNPs was determined by using RiboGreen RNA assay. In case of Method A Luciferase-mRNA while in case of Method B GFP-mRNA was transfected into the cells. In parallel with the transfection experiments, toxicity of the investigated LNPs was determined, in case of Method A resazurin assay while in case of Method B MTT assay was used. In the case of some lipids, the apparent pKa in LNPs was determined by using TNS titration based on the method described: Angew Chem Int Ed Engl. 2012, 51 (34), 8529-8533, doi: 10.1002/anie.201203263).

Compound	Zeta potential (mV) [1] [mV]	PDI [1]	Size (nm) [1] [nm]	EE (%) [2] [%]	pKa [3]
CCCCCCCCCCSC(CCCC)C(=O)OCCCCCCN(CCCCO)CCCCCCOC(CCCCCCC)O[Si](C)(C)CCCCCCCC (stereo not drawn) [Example 167, 15-heptyl-7-(4-hydroxybutyl)-17,17-dimethyl-14,16-dioxa-7-aza-17-silapentacosyl 2-(decylthio)hexanoate]	−13.69	0.04	202.9	98	6.42
CCCCCCCCCCSC(CCCC)C(=O)OCCCCCCN(CCCCO)CCCCCCO[Si](C)(C)OC(CCCCCCC)OCCCCCCCC (stereo not drawn) [Example 176, 17-heptyl-7-(4-hydroxybutyl)-15,15-dimethyl-14,16,18-trioxa-7-aza-15-silahexacosyl 2-(decylthio)hexanoate]	−15.0	0.18	175.00	95	6.48
CCCCCCCCOC(CCCCCCC)O[Si](C)(C)OCCCCCCN(CCCCO)CCCCCCOC(=O)C(CCCCCCCC)SCCCCC (stereo not drawn) [Example 188, 17-heptyl-7-(4-hydroxybutyl)-15,15-dimethyl-14,16,18-trioxa-7-aza-15-silahexacosyl 2-(pentylthio)decanoate]	−18.1	0.08	160.0	98	6.34
CCCCCCCCCCCOC(=O)CCCCCN(CCO)CCCCCCCCCOC(CCCCCCC)O[Si](C)(C)CCCCCC (stereo not drawn) [Example 209, undecyl 9-heptyl-20-(2-hydroxyethyl)-7,7-dimethyl-8,10-dioxa-20-aza-7-silahexacosan-26-oate]	−12.11	0.018	161.6	97	6.61
CCCCCCCCCCCOC(=O)CCCCCN(CCO)CCCCCCCCCC(OCCCCCCCC)O[Si](C)(C)CCCCCC (stereo not drawn) [Example 210, undecyl 6-((10-((hexyldimethylsilyl)oxy)-10-(octyloxy)decyl)(2-hydroxyethyl)amino)hexanoate]	−18.75	0.097	181.2	99	6.4
CCCCCCCCOC(CCCCCN(CCCCO)CCC[C@@H](C)C1CCC2C3CCC4C[C@H](OC)CC[C@]4(C)C3CC[C@@]21C)O[Si](C)(C)O[Si](C)(C)CCCCCCCC (stereo partly drawn) [Example 218, 4-(((4R)-4-((3R,10S,13R)-3-methoxy-10,13-dimethylhexadecahydro-1H-cyclopenta[a]phenanthren-17-yl)pentyl)(6-(octyloxy)-6-((1,1,3,3-tetramethyl-3-octyldisiloxaneyl)oxy)hexyl)amino)butan-1-ol]	−12.88	0.028	165.6	97	–
CCCCCCCC[Si](C)(C)O[Si](C)(C)OC(CCCCCCC)OCCCCCCN(CCCCO)CCC[C@@H](C)C1CCC2C3CCC4C[C@H](OC)CC[C@]4(C)C3CC[C@@]21C (stereo partly drawn) [Example 219, 13-heptyl-5-((4R)-4-((3R,10S,13R)-3-methoxy-10,13-dimethylhexadecahydro-1H-cyclopenta[a]phenanthren-17-yl)pentyl)-15,15,17,17-tetramethyl-12,14,16-trioxa-5-aza-15,17-disilapentacosan-1-ol]	−16.69	0.076	139.4	98	–
CCCCCCCCOC(CCCCCN(CCCCO)CCC[C@@H](C)C1CCC2C3CCC4C[C@H](OC)CC[C@]4(C)C3CC[C@@]21C)O[Si](C)(C)O[Si](C)(C)OCCCCCCCC (stereo partly drawn) [Example 220, 4-(((4R)-4-((3R,10S,13R)-3-methoxy-10,13-dimethylhexadecahydro-1H-cyclopenta[a]phenanthren-17-yl)pentyl)(6-(octyloxy)-6-((1,1,3,3-tetramethyl-3-(octyloxy)disiloxaneyl)oxy)hexyl)amino)butan-1-ol]	−14.55	0.002	138.4	98	–
CCCCCCCCO[Si](C)(C)O[Si](C)(C)OC(CCCCCCC)OCCCCCCN(CCCCO)CCC[C@@H](C)C1CCC2C3CCC4C[C@H](OC)CC[C@]4(C)C3CC[C@@]21C (stereo partly drawn) [Example 221, 13-heptyl-5-((4R)-4-((3R,10S,13R)-3-methoxy-10,13-dimethylhexadecahydro-1H-cyclopenta[a]phenanthren-17-yl)pentyl)-15,15,17,17-tetramethyl-12,14,16,18-tetraoxa-5-aza-15,17-disilahexacosan-1-ol]	−13.99	0.011	142.1	96	–
CCCCCCCCOC(CCCCCN(CCCCO)CCC[C@@H](C)C1CCC2C3CCC4C[C@H](OC)CC[C@]4(C)C3CC[C@@]21C)O[Si](C)(C)OCC(CCCCCC)CCCCCCCC (stereo partly drawn) [Example 222, 16-hexyl-5-((4R)-4-((3R,10S,13R)-3-methoxy-10,13-dimethylhexadecahydro-1H-cyclopenta[a]phenanthren-17-yl)pentyl)-13,13-dimethyl-11-(octyloxy)-12,14-dioxa-5-aza-13-silatetracosan-1-ol]	−16.36	0.121	164.5	94	–
CCCCCCCCC(CCCCCC)CO[Si](C)(C)OC(CCCCCCC)OCCCCCCN(CCCCO)CCC[C@@H](C)C1CCC2C3CCC4C[C@H](OC)CC[C@]4(C)C3CC[C@@]21C (stereo partly drawn) [Example 223, 13-heptyl-18-hexyl-5-((4R)-4-((3R,10S,13R)-3-methoxy-10,13-dimethylhexadecahydro-1H-cyclopenta[a]phenanthren-17-yl)pentyl)-15,15-dimethyl-12,14,16-trioxa-5-aza-15-silahexacosan-1-ol]	−13.68	0.15	206.5	94	–
CCCCCCCCOC(CCCCCCC)O[Si](C)(C)CCCCCCN(CCCCO)CCC[C@@H](C)C1CCC2C3CCC4C[C@H](OC)CC[C@]4(C)C3CC[C@@]21C (stereo partly drawn) [Example 224, 14-heptyl-5-((4R)-4-((3R,10S,13R)-3-methoxy-10,13-dimethylhexadecahydro-1H-cyclopenta[a]phenanthren-17-yl)pentyl)-12,12-dimethyl-13,15-dioxa-5-aza-12-silatricosan-1-ol]	−16.58	0.08	176.5	97	–
CCCCCCCCOC(CCCCCCC)O[Si](C)(C)OCCCCCCN(CCCCO)CCC[C@@H](C)C1CCC2C3CCC4C[C@H](OC)CC[C@]4(C)C3CC[C@@]21C (stereo partly drawn) [Example 225, 15-heptyl-5-((4R)-4-((3R,10S,13R)-3-methoxy-10,13-dimethylhexadecahydro-1H-cyclopenta[a]phenanthren-17-yl)pentyl)-13,13-dimethyl-12,14,16-trioxa-5-aza-13-silatetracosan-1-ol]	−13.58	0.04	117.9	98	–
